System: CMGT071020 cells
Experiment: Relative mRNA expression by qRT-PCR
Type: cell-based, canine
Description: After the treatment of the cells with MPOBA at varying concentrations from 0 to 200 µM for 48 h, the total RNA was isolated using a GeneJet RNA Purification kit (Thermo Fisher Scientific, Waltham, MA, USA) according to the manufacturer’s protocol for adherent tissue culture cells using the spin-column method. The RNA’s concentration and purity (A260/A280 ratio) were spectrophotometrically determined using a NanoDrop One/OneC Microvolume UV-Vis Spectrophotometer (Thermo Fisher Scientific, Waltham, MA, USA). To remove genomic DNA contamination, the samples were treated with RQ1 RNase-Free DNase (Promega, Madison, WI, USA) according to the manufacturer’s instructions. First-strand cDNA was obtained using a SuperScript® III First-Strand Synthesis kit for reverse-transcription polymerase chain reaction (RT-PCR) (Invitrogen, Carlsbad, CA, USA) according to the manufacturer’s protocol. Briefly, total RNA (1 μg), oligo (dT) primers (50 µM), a dNTP mix (10 mM), the cDNA synthesis mix, and nuclease-free water were added to obtain a final volume of 20 µL. PCR amplification was performed using a G-Storm GS482 PCR thermal cycler (Gene Technologies, Somerset, UK) with the following reaction profile: 65 °C for 5 min, 50 °C for 50 min, 85 °C for 5 min, and 37 °C for 5 min. The relative mRNA expression levels of canine SNAIL, SLUG, TWIST, E-cadherin, N-cadherin, TP53, EGFR, BAX, and BCL-2 were normalized to canine glyceraldehyde 3-phosphate dehydrogenase (GAPDH). The relative mRNA expression levels were calculated using the 2^–∆∆ Cq method. The transcriptional levels of all genes were determined in four replicates via qRT-PCR using a CFX 96 Touch real-time PCR detection system (Bio-Rad, Hercules, CA, USA). The qRT-PCR was performed using a reaction mixture containing 2 μL of the cDNA template, 10 μL of the iTaq Universal SYBR Green Supermix (Bio-Rad, Hercules, CA, USA), and 1 μL of each primer. The qRT-PCR protocol for the SNAIL, SLUG, TWIST, EGFR, TP53, BAX, BCL-2, and GAPDH genes was carried out as follows: initial denaturation at 94 °C for 3 min, denaturation at 94 °C for 15 s, annealing at 60 °C for 30 s, and extension at 72 °C for 1 min (40 cycles), and dissociation curves were generated between 65 °C and 95 °C to assess the specificity of the amplicons. The qRT-PCR protocol for E-cadherin and N-cadherin was carried out according to Yu et al..

[1] = CMGT071020, 200 µM, 48 h, vs control

Cc1ncccc1Oc1ccccc1C=O [MPOBA, 2-((2-methylpyridin-3-yl)oxy)benzaldehyde]
BAX mRNA expression level [1]: dramatically increased | BCL-2 mRNA expression level [1]: significantly decreased | TP53 mRNA expression level [1]: significantly increased | TWIST mRNA expression level (CMGT071020, 48 h, treated vs untreated): not significantly different | E-cadherin mRNA expression level (CMGT071020, 48 h, vs control): upregulation | EGFR mRNA expression level (CMGT071020, 48 h, vs control): significantly decreased | N-cadherin mRNA expression level (CMGT071020, 48 h, vs control): significant downregulation | SLUG mRNA expression level (CMGT071020, 48 h, vs control): significant downregulation | SNAIL mRNA expression level (CMGT071020, 48 h, vs control): significant downregulation

Reference: paper PMC10854894, “A New Benzo[6,7]oxepino[3,2-b] Pyridine Derivative Induces Apoptosis in Canine Mammary Cancer Cell Lines” (Animals : an Open Access Journal from MDPI, 2024)
